One assay deals with DQ2–CLIP complex (Homo sapiens, UniProt P01909+P01920). The assay is described as follows: CLIP pre-conditioned peptide exchange assay. Conditions: CE-FL; for binding to DQ2–CLIP preparation / displacement of pre-bound CLIP peptide: pH 5.5, peptide:DQ2 5:1 ([Cy5-20-mer]=35 μM; [DQ2-CLIP complex]=7 μM). The class given is binding.
In another assay the test system is HLA-DQ2. Briefly: DQ2-peptide binding. More on the design: species or system human. Conditions: single peptide binding; thrombin treated DQ2–αI; DQ2:peptide = 10:1 ([DQ2]=6 μM, [peptide]=0.6 μM); 48 h at 37 °C; phosphate buffer pH 7.3; CE-FL peak areas; error less than 4% in multiple repeats.

DQ2–CLIP complex, sequence (P01920 33-230 limits assumed, other chains not shown): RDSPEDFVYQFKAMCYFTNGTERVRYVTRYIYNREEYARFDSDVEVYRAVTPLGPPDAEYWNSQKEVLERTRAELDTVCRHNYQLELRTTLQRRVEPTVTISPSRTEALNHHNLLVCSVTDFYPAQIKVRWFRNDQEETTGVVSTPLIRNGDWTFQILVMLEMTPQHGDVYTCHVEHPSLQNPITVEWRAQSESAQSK

Consider Cy5-AAIAAVKEEAF [reference compound], for which the “binding to DQ2–CLIP preparation / displacement of pre-bound CLIP peptide” value on DQ2–CLIP complex is reported as “unable to bind”.
As to Cy5-LQLQPFPQPELPYPQPELPY [Cy5-20-mer], in the assay on HLA-DQ2, the “SDQ2-peptide / Stotal peptide (%) (binding capacity, fraction of bound peptide)” value amounted to 64%. Moreover, the “binding to DQ2–CLIP preparation / displacement of pre-bound CLIP peptide” value on DQ2–CLIP complex was “not at pH 5.5”. Further, the “effect on dissociation kinetics of CLIP peptide from DQ2–CLIP complex” value on DQ2–CLIP complex (pH 7.3, with 20-mer (5:1, [Cy5-20-mer]=35 μM; [DQ2-CLIP complex]=7 μM) versus absence of 20-mer) is recorded as “did not affect the dissociation kinetics”.

The record behind these values is PMC3382112 (Chemistry, an Asian journal, 2012).
